In US9765092B2, “Tricyclic piperidine compounds” (ACTELION PHARMACEUTICALS LTD, priority 2013, dated 2017):
Like-named read-outs stand apart in the source and are kept apart here.

Target: human TPH1 (Homo sapiens (Human), UniProt P17752)
Assay: Biochemical in vitro assay using fluorescence readout (TPH1 inhibition)
[1] = full length human TPH1, 40 μM L-tryptophan, 15° C., 60 minutes, fluorescence at 540 nm, mean if determined several times
[2] = human TPH1, fluorescence readout

Chain of human TPH1 (P17752 whole entry): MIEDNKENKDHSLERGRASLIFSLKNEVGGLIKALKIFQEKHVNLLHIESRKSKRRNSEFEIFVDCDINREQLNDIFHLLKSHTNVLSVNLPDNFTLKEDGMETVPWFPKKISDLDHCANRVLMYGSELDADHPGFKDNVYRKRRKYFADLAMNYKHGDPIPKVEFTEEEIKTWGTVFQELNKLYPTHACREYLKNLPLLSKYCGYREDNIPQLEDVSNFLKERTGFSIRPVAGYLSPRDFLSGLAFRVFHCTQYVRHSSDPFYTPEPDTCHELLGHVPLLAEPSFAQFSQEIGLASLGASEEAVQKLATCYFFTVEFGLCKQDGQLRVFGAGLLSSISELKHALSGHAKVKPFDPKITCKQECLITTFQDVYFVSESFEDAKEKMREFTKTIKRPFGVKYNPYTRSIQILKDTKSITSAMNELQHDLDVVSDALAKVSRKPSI

SMILES | IC50 [1] | IC50 [2] | other results
Cc1nn2c3c(nc2s1)CCN(C(=O)COc1ccc(C(=O)N(C)C)nc1Cl)C3c1ncc(C(=O)N(C)C)s1 (stereo not shown) [Example 1.37.4, 2-(6-(2-((2-Chloro-6-(dimethylcarbamoyl)pyridin-3-yl)oxy)acetyl)-2-methyl-5,6,7,8-tetrahydro-[1,3,4]thiadiazolo[2′,3′:2,3]imidazo[4,5-c]pyridin-5-yl)-N,N-dimethylthiazole-5-carboxamide] | 0.04 µM |  | 
Cc1nn2c3c(nc2s1)CCN(C(=O)COc1ccc(N2CCOCC2)nc1Cl)C3c1ncc(C(=O)N(C)C)s1 (stereo not shown) [Example 1.37.5, 2-(6-(2-((2-Chloro-6-morpholinopyridin-3-yl)oxy)acetyl)-2-methyl-5,6,7,8-tetrahydro-[1,3,4]thiadiazolo[2′,3′:2,3]imidazo[4,5-c]pyridin-5-yl)-N,N-dimethylthiazole-5-carboxamide] | 0.009 µM |  | 
Cc1nn2c3c(nc2s1)CCN(C(=O)COc1ccc(N2CCOCC2)nc1Cl)C3c1csc(C(=O)O)c1 (stereo not shown) [Example 1.38.1, 4-(6-(2-((2-Chloro-6-morpholinopyridin-3-yl)oxy)acetyl)-2-methyl-5,6,7,8-tetrahydro-[1,3,4]thiadiazolo[2′,3′:2,3]imidazo[4,5-c]pyridin-5-yl)thiophene-2-carboxylic acid] | 0.113 µM |  | 
Cc1nn2c3c(nc2s1)CCN(C(=O)COc1ccc(NS(C)(=O)=O)nc1Cl)C3c1cncs1 (stereo not shown) [Example 1.39.1, N-(6-chloro-5-(2-(2-methyl-5-(thiazol-5-yl)-7,8-dihydro-[1,3,4]thiadiazolo[2′,3′:2,3]imidazo[4,5-c]pyridin-6(5H)-yl)-2-oxoethoxy)pyridin-2-yl)methanesulfonamide] |  | 0.101 µM | 
Cc1nn2c3c(nc2s1)CCN(C(=O)COc1ccc(C(=O)N(C)C)nc1Cl)C3c1cncs1 (stereo not shown) [Example 1.39.2, 6-chloro-N,N-dimethyl-5-(2-(2-methyl-5-(thiazol-5-yl)-7,8-dihydro-[1,3,4]thiadiazolo[2′,3′:2,3]imidazo[4,5-c]pyridin-6(5H)-yl)-2-oxoethoxy)picolinamide] |  | 0.069 µM | 
Cc1nn2c3c(nc2s1)CCN(C(=O)COc1ccc(N2CCOCC2)nc1Cl)C3c1cncs1 (stereo not shown) [Example 1.39.3, 2-((2-chloro-6-morpholinopyridin-3-yl)oxy)-1-(2-methyl-5-(thiazol-5-yl)-7,8-dihydro-[1,3,4]thiadiazolo[2′,3′:2,3]imidazo[4,5-c]pyridin-6(5H)-yl)ethanone] |  | 0.005 µM | 
Cc1nn2c3c(nc2s1)CCN(C(=O)COc1ccc(C(=O)N(C)C)nc1Cl)C3c1ccc(C(=O)N(C)C)o1 (stereo not shown) [Example 1.40.1, 6-Chloro-5-(2-(5-(5-(dimethylcarbamoyl)furan-2-yl)-2-methyl-7,8-dihydro[1,3,4]thiadiazolo[2′,3′:2,4]imidazo[4,5-c]pyridin-6(5H)-yl)-2-oxoethoxy)-N,N-dimethylpicolinamide] | 0.09 µM |  | 
Cc1nn2c3c(nc2s1)CCN(C(=O)COc1ccc(N2CCOCC2)nc1Cl)C3c1ccc(C(=O)N(C)C)o1 (stereo not shown) [Example 1.40.2, 5-(6-(2-((2-Chloro-6-morpholinopyridin-3-yl)oxy)acetyl)-2-methyl-5,6,7,8-tetrahydro-[1,3,4]thiadiazolo[2′,3′:2,3]imidazo[4,5-c]pyridin-5-yl)-N,N-dimethylfuran-2-carboxamide] | 0.012 µM |  | 
Cc1nn2c3c(nc2s1)CCN(C(=O)COc1ccc(N2CCOCC2)nc1Cl)C3c1nc(C(=O)O)cs1 (stereo not shown) [Example 1.41.1, 2-(6-(2-((2-chloro-6-morpholinopyridin-3-yl)oxy)acetyl)-2-methyl-5,6,7,8-tetrahydro-[1,3,4]thiadiazolo[2′,3′:2,3]imidazo[4,5-c]pyridin-5-yl)thiazole-4-carboxylic acid] | 0.065 µM |  | 
CNC(=O)c1ccc(C2c3c(nc4sc(C)nn34)CCN2C(=O)COc2ccc(C(=O)N(C)C)nc2Cl)o1 (stereo not shown) [Example 1.42.1, 6-chloro-N,N-dimethyl-5-(2-(2-methyl-5-(5-(methylcarbamoyl)furan-2-yl)-7,8-dihydro-[1,3,4]thiadiazolo[2′,3′:2,3]imidazo[4,5-c]pyridin-6(5H)-yl)-2-oxoethoxy)picolinamide] |  | 0.049 µM | 
CNC(=O)c1ccc(C2c3c(nc4sc(C)nn34)CCN2C(=O)COc2ccc(N3CCOCC3)nc2Cl)o1 (stereo not shown) [Example 1.42.2, 5-(6-(2-((2-chloro-6-morpholinopyridin-3-yl)oxy)acetyl)-2-methyl-5,6,7,8-tetrahydro-[1,3,4]thiadiazolo[2′,3′:2,3]imidazo[4,5-c]pyridin-5-yl)-N-methylfuran-2-carboxamide] |  | 0.011 µM | 
Cc1nn2c3c(nc2s1)CCN(C(=O)COc1ccc(N2CCOCC2)nc1Cl)C3c1nc(C(=O)N(C)C)co1 (stereo not shown) [Example 1.43.1, 2-(6-(2-((2-Chloro-6-morpholinopyridin-3-yl)oxy)acetyl)-2-methyl-5,6,7,8-tetrahydro-[1,3,4]thiadiazolo[2′,3′:2,3]imidazo[4,5-c]pyridin-5-yl)-N,N-dimethyloxazole-4-carboxamide] | 0.026 µM |  | 
CNC(=O)c1csc(C2c3c(nc4sc(C)nn34)CCN2C(=O)COc2ccc(C(F)(F)F)cc2Cl)n1 (stereo not shown) [Example 1.44.1, 2-(6-(2-(2-Chloro-4-(trifluoromethyl)phenoxy)acetyl)-2-methyl-5,6,7,8-tetrahydro-[1,3,4]thiadiazolo[2′,3′:2,3]imidazo[4,5-c]pyridin-5-yl)-N-methylthiazole-4-carboxamide] | 0.311 µM |  | 
CNC(=O)c1csc(C2c3c(nc4sc(C)nn34)CCN2C(=O)COc2ccc(N3CCOCC3)nc2Cl)n1 (stereo not shown) [Example 1.44.2, 2-(6-(2-((2-Chloro-6-morpholinopyridin-3-yl)oxy)acetyl)-2-methyl-5,6,7,8-tetrahydro-[1,3,4]thiadiazolo[2′,3′:2,3]imidazo[4,5-c]pyridin-5-yl)-N-methylthiazole-4-carboxamide] | 0.005 µM |  | 
Cc1nn2c3c(nc2s1)CCN(C(=O)COc1ccc(N2CCOCC2)nc1Cl)C3c1csc(CO)c1 (stereo not shown) [Example 1.45.1, 2-((2-Chloro-6-morpholinopyridin-3-yl)oxy)-1-(5-(5-(hydroxymethyl)-thiophen-3-yl)-2-methyl-7,8-dihydro-[1,3,4]thiadiazolo[2′,3′:2,3]imidazo[4,5-c]pyridin-6(5H)-yl)ethanone] | 0.033 µM |  | 
Cc1nn2c3c(nc2s1)CCN(C(=O)COc1ccc(N2CCOCC2)nc1Cl)C3c1cc(C(=O)O)cs1 (stereo not shown) [Example 1.46.1, 5-(6-(2-((2-chloro-6-morpholinopyridin-3-yl)oxy)acetyl)-2-methyl-5,6,7,8-tetrahydro-[1,3,4]thiadiazolo[2′,3′:2,3]imidazo[4,5-c]pyridin-5-yl)thiophene-3-carboxylic acid] | 0.018 µM |  | 
CCNC(=O)Nc1nc(C2c3c(nc4sc(C)nn34)CCN2C(=O)COc2ccc(N3CCOCC3)nc2Cl)cs1 (stereo not shown) [Example 1.47.1, 1-(4-(6-(2-((2-chloro-6-morpholinopyridin-3-yl)oxy)acetyl)-2-methyl-5,6,7,8-tetrahydro-[1,3,4]thiadiazolo[2′,3′:2,3]imidazo[4,5-c]pyridin-5-yl)thiazol-2-yl)-3-ethylurea] |  | 0.018 µM | 
Cc1nn2c3c(nc2s1)CCN(C(=O)COc1ccc(N2CCOCC2)nc1Cl)C3c1nc(C(N)=O)cs1 (stereo not shown) [Example 1.48.1, 2-(6-(2-((2-Chloro-6-morpholinopyridin-3-yl)oxy)acetyl)-2-methyl-5,6,7,8-tetrahydro-[1,3,4]thiadiazolo[2′,3′:2,3]imidazo[4,5-c]pyridin-5-yl)thiazole-4-carboxamide] | 0.005 µM |  | 
Cc1nn2c3c(nc2s1)CCN(C(=O)COc1ccc(N2CCOCC2)nc1Cl)C3c1cnc(N2CC(F)(F)C2)s1 (stereo not shown) [Example 1.49.1, 2-((2-Chloro-6-morpholinopyridin-3-yl)oxy)-1-(5-(2-(3,3-difluoro-azetidin-1-yl)thiazol-5-yl)-2-methyl-7,8-dihydro-[1,3,4]thiadiazolo[2′,3′:2,3]imidazo[4,5-c]pyridin-6(5H)-yl)-ethanone] | 0.015 µM |  | 
COC1(c2csc(C3c4c(nc5sc(C)nn45)CCN3C(=O)COc3ccc(N4CCOCC4)nc3Cl)c2)COC1 (stereo not shown) [Example 1.50.1, 2-((2-chloro-6-morpholinopyridin-3-yl)oxy)-1-(5-(4-(3-methoxyoxetan-3-yl)thiophen-2-yl)-2-methyl-7,8-dihydro-[1,3,4]thiadiazolo[2′,3′:2,3]imidazo[4,5-c]pyridin-6(5H)-yl)ethanone] |  | 0.006 µM | 
CCNc1nn(C)c(C2c3c(nc4sc(C)nn34)CCN2C(=O)COc2ccc(N3CCOCC3)nc2Cl)c1C (stereo not shown) [Example 1.51.1, 2-((2-Chloro-6-morpholinopyridin-3-yl)oxy)-1-(5-(3-(ethylamino)-1,4-dimethyl-1H-pyrazol-5-yl)-2-methyl-7,8-dihydro-[1,3,4]thiadiazolo[2′,3′:2,3]imidazo[4,5-c]pyridin-6(5H)-yl)ethanone] | 0.058 µM |  | 
Cc1nn2c3c(nc2s1)CCN(C(=O)COc1ccc(N2CCOCC2)nc1Cl)C3c1nc(N)sc1F (stereo not shown) [Example 1.52.1, 1-(5-(2-Amino-5-fluorothiazol-4-yl)-2-methyl-7,8-dihydro-[1,3,4]thiadiazolo[2′,3′:2,3]-imidazo[4,5-c]pyridin-6(5H)-yl)-2-((2-chloro-6-morpholinopyridin-3-yl)oxy)ethanone] | 0.006 µM |  | 
Cc1ccc(C2c3c(nc4sc(C)nn34)CCN2C(=O)COc2ccc(-c3ncco3)nc2Cl)c(F)c1 (stereo not shown) [Example 1.53.1, 2-((2-chloro-6-(oxazol-2-yl)pyridin-3-yl)oxy)-1-(5-(2-fluoro-4-methylphenyl)-2-methyl-7,8-dihydro-[1,3,4]thiadiazolo[2′,3′:2,3]imidazo[4,5-c]pyridin-6(5H)-yl)ethanone] |  | 0.009 µM | 
Cc1ccc(C2c3c(nc4sc(C)nn34)CCN2C(=O)COc2ccc(NS(C)(=O)=O)nc2Cl)c(F)c1 (stereo not shown) [Example 1.53.2, N-(6-chloro-5-(2-(5-(2-fluoro-4-methylphenyl)-2-methyl-7,8-dihydro-[1,3,4]thiadiazolo[2′,3′:2,3]imidazo[4,5-c]pyridin-6(5H)-yl)-2-oxoethoxy)pyridin-2-yl)methanesulfonamide] |  |  | IC50: 0.012 µM
Cc1ccc(C2c3c(nc4sc(C)nn34)CCN2C(=O)COc2ccc(C(=O)N(C)C3CC3)nc2Cl)c(F)c1 (stereo not shown) [Example 1.53.3, 6-chloro-N-cyclopropyl-5-(2-(5-(2-fluoro-4-methyl-phenyl)-2-methyl-7,8-dihydro-[1,3,4]thiadiazolo-[2′,3′:2,3]imidazo[4,5-c]pyridin-6(5H)-yl)-2-oxoethoxy)-N-methylpicolinamide] |  | 0.015 µM | 
